Measurements published in the OligoGym collection.
“And” between values parts separate entries of the source, which are not always exact repeats. Identical values can stand only once. After the bases stand the sugars from the 5' end (letter, count) and the backbone: PS all phosphorothioate, else s phosphorothioate and o phosphodiester by linkage. Methylation of C is not given here. e = 2'-O-(2-methoxyethyl) (MOE); k = constrained ethyl (cEt); d = 2'-deoxy (DNA)

Biological target: IRF4
Settings: ASO

GTAGTATGAGAAACGG (sugars kdddddddddkekeke, PS)
target mRNA inhibition (MM.1R, 1 µM): 28%

TTAACCATTACTTAGA (sugars k3 d10 k3, PS)
target mRNA inhibition (SK-MEL-28, 4 µM): 45%

TGGCAGGGAGCGGCCG (sugars k3 d10 k3, PS)
target mRNA inhibition (SK-MEL-28, 4 µM): 11%

GACCCACACCAGGAAA (sugars k3 d10 k3, PS)
target mRNA inhibition (SK-MEL-28, 4 µM): 2%

TGTTAGCTACAAAGAG (sugars k3 d10 k3, PS)
target mRNA inhibition (SK-MEL-28, 4 µM): 47%

CAGTAACTTGACTTGA (sugars k3 d10 k3, PS)
target mRNA inhibition (SK-MEL-28, 4 µM): 39%

AAACACAGTCTGCTGC (sugars k3 d10 k3, PS)
target mRNA inhibition (SK-MEL-28, 4 µM): 35%

CTCCATTCAAGCCAGT (sugars k3 d10 k3, PS)
target mRNA inhibition (SK-MEL-28, 4 µM): 58%

AACCAATCCCAACACT (sugars k3 d10 k3, PS)
target mRNA inhibition (SK-MEL-28, 4 µM): 12%

AGGGACCGCGCCAGGC (sugars k3 d10 k3, PS)
target mRNA inhibition (MM.1R, 1 µM): 0%

ATCTGGATGAGCTTAC (sugars k3 d10 k3, PS)
target mRNA inhibition (SK-MEL-28, 4 µM): 38%

CTGCTTGAGGTTTTCC (sugars kkdddddddddkekek, PS)
target mRNA inhibition (MM.1R, 1 µM): 30%

AAACTTGGGTCACTTA (sugars k3 d10 k3, PS)
target mRNA inhibition (MM.1R, 1 µM): 5%

ATGTTAGCCAATTCCT (sugars kddddddddddkekek, PS)
target mRNA inhibition (MM.1R, 1 µM): 0% and 7%

AGCATTTTATCATCCG (sugars e1 k2 d9 k2 e2, PS)
target mRNA inhibition (MM.1R, 1 µM): 43%

CCCCGCGGTCCCGCTG (sugars k3 d10 k3, PS)
target mRNA inhibition (SK-MEL-28, 4 µM): 41%

TCGCATCCAGACCCTT (sugars k3 d10 k3, PS)
target mRNA inhibition (SK-MEL-28, 4 µM): 28%

GAAGGCCTGAGTTACC (sugars k3 d10 k3, PS)
target mRNA inhibition (MM.1R, 1 µM): 29%

AGCCAGAGGTTCGCTG (sugars k3 d10 k3, PS)
target mRNA inhibition (SK-MEL-28, 4 µM): 25%

GCCATTGTCCTCTGGG (sugars k3 d10 k3, PS)
target mRNA inhibition (SK-MEL-28, 4 µM): 25%

TCCAAACCTTAAGCTA (sugars k3 d10 k3, PS)
target mRNA inhibition (SK-MEL-28, 4 µM): 37%

ATATAGTTGTCTGGCT (sugars k3 d10 k3, PS)
target mRNA inhibition (SK-MEL-28, 4 µM): 41%

CATACAGTGTGATTAA (sugars k3 d10 k3, PS)
target mRNA inhibition (SK-MEL-28, 4 µM): 53%

TTAGAAAGCCCTCACC (sugars k3 d10 k3, PS)
target mRNA inhibition (SK-MEL-28, 4 µM): -16%

CCGGAGCAGGCCCGGG (sugars k3 d10 k3, PS)
target mRNA inhibition (SK-MEL-28, 4 µM): -13%

TCAGAATGTTTCGACA (sugars k3 d10 k3, PS)
target mRNA inhibition (MM.1R, 1 µM): 6%

CCTACTGGGTACATGG (sugars k3 d10 k3, PS)
target mRNA inhibition (SK-MEL-28, 4 µM): 63%

GTTACCGCATTGCTAG (sugars k3 d10 k3, PS)
target mRNA inhibition (MM.1R, 1 µM): 16%

AGGTAAAGGCACATTC (sugars k3 d10 k3, PS)
target mRNA inhibition (SK-MEL-28, 4 µM): 19%

CTCGGCCGCCGCCCTC (sugars k3 d10 k3, PS)
target mRNA inhibition (SK-MEL-28, 4 µM): 37%

ATATCCTGTAGTATGA (sugars k3 d10 k3, PS)
target mRNA inhibition (SK-MEL-28, 4 µM): 57%

CATGGAGGATCATAAA (sugars k3 d10 k3, PS)
target mRNA inhibition (SK-MEL-28, 4 µM): 22%

GCCAATTCCACTTTAT (sugars k3 d10 k3, PS)
target mRNA inhibition (SK-MEL-28, 4 µM): 64%

TGTATACATCACTGCA (sugars k3 d10 k3, PS)
target mRNA inhibition (SK-MEL-28, 4 µM): 63%

GCCACAACTCTCGCCT (sugars k3 d10 k3, PS)
target mRNA inhibition (SK-MEL-28, 4 µM): 25%

AAGTAACTGACACGCA (sugars k3 d10 k3, PS)
target mRNA inhibition (SK-MEL-28, 4 µM): 23%

GGCGACTAACTCTCCT (sugars k3 d10 k3, PS)
target mRNA inhibition (SK-MEL-28, 4 µM): 63%

CAGCATCTAAGGCAAG (sugars k3 d10 k3, PS)
target mRNA inhibition (SK-MEL-28, 4 µM): 54%

ATTATATACTGGTTGG (sugars k3 d10 k3, PS)
target mRNA inhibition (MM.1R, 0.0625 µM): 3% and 9% | target mRNA inhibition (MM.1R, 0.25 µM): 15% and 25% | target mRNA inhibition (MM.1R, 1 µM): 39% and 57% | target mRNA inhibition (MM.1R, 4 µM): 77% and 74%

TCCTATTATAGAGCAT (sugars k3 d10 k3, PS)
target mRNA inhibition (MM.1R, 1 µM): 3%

GAGACCTACAAAATGC (sugars k3 d10 k3, PS)
target mRNA inhibition (SK-MEL-28, 4 µM): 11%

GTTGTACAGGACAGGT (sugars k3 d10 k3, PS)
target mRNA inhibition (MM.1R, 1 µM): 33%

GTTGGCTGGTCTTTGT (sugars kkdddddddddkekek, PS)
target mRNA inhibition (MM.1R, 1 µM): 62%

GCTACATTTCTTATGC (sugars k3 d10 k3, PS)
target mRNA inhibition (SK-MEL-28, 4 µM): 20%

TGTAGTATGAGAAACG (sugars e1 k2 d9 k2 e2, PS)
target mRNA inhibition (MM.1R, 1 µM): 6%

CTAGAACATGATGAGA (sugars k3 d10 k3, PS)
target mRNA inhibition (SK-MEL-28, 4 µM): 29%

ACCGCATTGCTAGATT (sugars k3 d10 k3, PS)
target mRNA inhibition (MM.1R, 1 µM): 27%

TCTAATCCACAATCAG (sugars k3 d10 k3, PS)
target mRNA inhibition (SK-MEL-28, 4 µM): 41%

TTTTTAGTTCATACCC (sugars k3 d10 k3, PS)
target mRNA inhibition (SK-MEL-28, 4 µM): 41%

TTGCAAGCTATATTAA (sugars k3 d10 k3, PS)
target mRNA inhibition (SK-MEL-28, 4 µM): 34%

GCTCATGCCGAACTCT (sugars k3 d10 k3, PS)
target mRNA inhibition (SK-MEL-28, 4 µM): 19%

ACGTGTGCTTGCCAAG (sugars kkdddddddddkdkdk, PS)
target mRNA inhibition (MM.1R, 0.0625 µM): 15% | target mRNA inhibition (MM.1R, 0.25 µM): 43% | target mRNA inhibition (MM.1R, 1 µM): 75% and 66% and 56% | target mRNA inhibition (MM.1R, 4 µM): 77%

GGGAGATCCGGCAGCC (sugars k3 d10 k3, PS)
target mRNA inhibition (SK-MEL-28, 4 µM): -10%
